Experiments:
[1] = tested on: LXR target genes (Scd1, Fas, Srebp1) in liver; assay: Short term HFD mouse model: gene expression in liver tissue; format: in vivo; settings: HFD mice, expression normalized to Tbp; for response vs control in vivo at 20 mg/kg / response vs control in vivo at 10 mg/kg: Mus musculus, 4 h, read-out: Scd1 suppresion compared to vehicle
Description: The in vivo transcriptional regulation of several LXR target genes by LXR modulators was assessed in mice.
For this, C57BL/6J were purchased from Elevage Janvier (Rennes, France) at the age of 8 weeks. After an acclimation period of two weeks, animals were prefed on a high fat diet (HFD) (Ssniff Spezialdiäten GmbH, Germany, Surwit EF D12330 mod, Cat. No. E15771-34), with 60 kcal % from fat plus 1% (w/w) extra cholesterol (Sigma-Aldrich, St. Louis, MO) for 5 days. Animals were maintained on this diet during treatment with LXR modulators. The test compounds were formulated in 0.5% hydroxypropylmethylcellulose (HPMC) and administered in three doses (from 1.5 to 20 mg/kg each) by oral gavage according to the following schedule: on day one, animals received treatment in the morning and the evening (ca. 17:00), on day two animals received the final treatment in the morning after a 4 h fast and were sacrificed 4 h thereafter. Animal work was conducted according to the national guidelines for animal care in Germany.
Analysis of gene expression in liver tissue. To obtain total RNA from frozen liver tissue, samples (25 mg liver tissue) were first homogenized with RLA buffer (4M guanidin thiocyanate, 10 mM Tris, 0.97% w:v β-mercapto-ethanol). RNA was prepared using a SV 96 total RNA Isolation system (Promega, Madison, Wisconsin, USA) following the manufacturer's instructions. cDNAs were synthesized from 0.8-1 μg of total RNA using All-in-One cDNA Supermix reverse transcriptase (Absource Diagnostics, Munich, Germany). Quantitative PCR was performed and analyzed using Prime time Gene expression master mix (Integrated DNA Technologies, Coralville, Iowa, USA) and a 384-format ABI 7900HT Sequence Detection System (Applied Biosystems, Foster City, USA). The expression of the following genes was analysed: Stearoyl-CoA desaturase1 (Scd1), fatty acid synthase (Fas) and sterol regulatory element-binding protein1 (Srebp1). Specific primer and probe sequences (commercially available) are listed in Table 3. qPCR was conducted at 95° C. for 3 min, followed by 40 cycles of 95° C. for 15 s and 60° C. for 30 s. All samples were run in duplicates from the same RT-reaction. Gene expression was expressed in arbitrary units and normalized relative to the mRNA of the housekeeping gene TATA box binding protein (Tbp) using the comparative Ct method.

LXRβ = target: T1, LXRβ (Homo sapiens, UniProt P55055); assay: LXR Gal4 reporter transient transfection assay (mammalian two-hybrid, HEK293), LXRβ; format: cell-based; design: LXRβ (amino acids 156-461); expressed in transfected cells; host or cells: HEK293; settings: full length (FL) LXRβ, HEK293; read-out: FL-M2H Gal4β
T1 sequence (P55055 1-460): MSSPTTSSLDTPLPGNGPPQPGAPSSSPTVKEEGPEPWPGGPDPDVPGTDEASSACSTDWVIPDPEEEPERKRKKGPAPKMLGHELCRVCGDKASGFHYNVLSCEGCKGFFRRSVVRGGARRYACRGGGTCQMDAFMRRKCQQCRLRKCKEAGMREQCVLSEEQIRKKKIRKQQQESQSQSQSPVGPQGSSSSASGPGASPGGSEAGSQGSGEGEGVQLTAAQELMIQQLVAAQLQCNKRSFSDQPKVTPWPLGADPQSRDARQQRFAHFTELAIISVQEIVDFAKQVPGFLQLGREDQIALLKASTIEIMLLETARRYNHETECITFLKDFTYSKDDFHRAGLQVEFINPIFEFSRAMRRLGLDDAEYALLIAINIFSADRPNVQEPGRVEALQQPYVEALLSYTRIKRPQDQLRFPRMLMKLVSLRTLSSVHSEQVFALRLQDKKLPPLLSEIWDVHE
Outline: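 HEK293 cells transiently co-transfected with full-length or LBD LXRα/LXRβ fused to NFkB activation domain, GAL4-DBD-fused SRC1 or NCoR cofactor domain, GAL4-responsive firefly luciferase reporter and Renilla control. Compound added 4 h post-transfection (≤0.2% DMSO), incubated 16 h; firefly and Renilla luminescence read sequentially.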

Compound	Fasn suppression compared to vehicle ([1]; three oral doses of 20 mg/kg)	response vs control in vivo at 20 mg/kg ([1]; three oral doses of 20 mg/kg)	EC50 (LXRβ)	Fasn suppression compared to vehicle ([1]; three oral doses of 10 mg/kg)	Srebp1c suppr. compared to vehicle ([1]; three oral doses of 10 mg/kg)	response vs control in vivo at 10 mg/kg ([1]; three oral doses of 10 mg/kg)	Srebp1c suppr. compared to vehicle ([1]; three oral doses of 20 mg/kg)
O=C(O)c1ccc(-c2cccc(-c3c(-c4ncccc4C(F)(F)F)c4cc(F)ccc4n3S(=O)(=O)c3ccc(C(F)F)cc3)c2)c(Cl)c1 [11/23]	C (0.3 to ≤0.6)	< 30%	< 100 nM				
N#Cc1cccnc1-c1c(-c2cccc(-c3ccc(C(=O)O)cc3Cl)c2)n(S(=O)(=O)c2ccc(C(F)F)cc2)c2ccc(F)cc12 [11/26]			< 100 nM	D (<0.3)	D (<0.3)	30 to 60%	
COc1c(C(=O)O)ccc(-c2cccc(-c3c(-c4ccccc4C#N)c4cc(F)ccc4n3S(=O)(=O)c3ccc(C(F)F)cc3)c2)c1Cl [11/27]	C (0.3 to ≤0.6)	< 30%	< 100 nM				A (>0.9)
N#Cc1ccccc1-c1c(-c2cccc(-c3ccc(C(=O)O)cc3Cl)c2)n(S(=O)(=O)c2ccc(C(F)F)cc2)c2ccc(F)cc12 [11/33]	B (0.6 to ≤0.9)	< 30%	< 100 nM				
N#Cc1cccc(C#N)c1-c1c(-c2cccc(-c3ccc(C(=O)O)cc3Cl)c2)n(S(=O)(=O)c2ccc(C(F)(F)F)nc2)c2ccc(F)cc12 [11/37]			< 100 nM		D (<0.3)	< 30%	
N#Cc1ccccc1-c1c(-c2cccc(-c3ccc(C(=O)O)cc3Cl)c2)n(S(=O)(=O)c2ccc(C(F)F)cc2)c2cnccc12 [11/49]	C (0.3 to ≤0.6)	< 30%	< 100 nM				C (0.3 to ≤0.6)
N#Cc1cccc(C#N)c1-c1c(-c2cccc(-c3ccc(C(=O)O)cc3F)c2)n(S(=O)(=O)c2ccc(C(F)F)cc2)c2ccc(F)cc12 [11/51]			< 100 nM		D (<0.3)	< 30%	
N#Cc1cccc(C#N)c1-c1c(-c2cccc(-c3c(F)cc(C(=O)O)cc3F)c2)n(S(=O)(=O)c2ccc(C(F)F)cc2)c2ccc(F)cc12 [11/53]			< 100 nM		D (<0.3)	< 30%	
N#Cc1cccc(C#N)c1-c1c(-c2cccc([C@H]3CC[C@H](C(=O)O)CC3)c2)n(S(=O)(=O)c2ccc(C(F)F)cc2)c2ccc(F)cc12 [11/62]			< 100 nM		D (<0.3)	< 30%	
N#Cc1cccc(C#N)c1-c1c(-c2cccc(-c3ccc(C(=O)O)cc3Cl)c2)n(S(=O)(=O)C2CCC(F)(F)CC2)c2ccc(F)cc12 [11/63]			< 100 nM		D (<0.3)	30 to 60%	
N#Cc1cccc(C#N)c1-c1c(-c2cccc(-c3cc(F)c(C(=O)O)cc3Cl)c2)n(S(=O)(=O)c2ccc(C(F)F)cc2)c2ccc(F)cc12 [11/65]			< 100 nM		D (<0.3)	< 30%	
Cc1ccc(S(=O)(=O)n2c(-c3cccc(-c4ccc(C(=O)O)cc4)c3)c(-c3ccsc3C#N)c3cc(F)ccc32)cc1C [23/2]	C (0.3 to ≤0.6)	< 30%	< 100 nM				
CS(=O)(=O)NC(=O)c1ccc(-c2cccc(-c3c(-c4c(C#N)cccc4C#N)c4cc(F)ccc4n3S(=O)(=O)c3ccc(C(F)F)cc3)c2)c(Cl)c1 [32/5]			< 100 nM		C (0.3 to ≤0.6)	30 to 60%	
N#Cc1cccc(C#N)c1-c1c(-c2cccc(-c3ccc(C(=O)NCC(=O)O)cc3Cl)c2)n(S(=O)(=O)c2ccc(C(F)F)cc2)c2ccc(F)cc12 [Compound 21/3]			< 100 nM	C (0.3 to ≤0.6)		< 30%	

Reference: patent US20260083704A1, “LXR MODULATORS WITH BICYCLIC CORE MOIETY FOR TREATING DYSLIPIDEMIAS” (OrsoBio, Inc., priority 2022, published 2026)
